Consider 29 compounds from patent US7902225B2, “Mycobacterial inhibitors” (Janssen Pharmaceutica NV, priority 2005, dated 2011).

Where a name gives a salt, the structure may show the parent alone.

In data set [1] the test system is M. Smegmatis ATCC607. Nature of the data set: In-vitro anti-bacterial activity against strain M. smegmatis ATCC607 (growth inhibition, Alamar Blue fluorescence). It is filed as cell-based. The settings on record: 48 hours at 37° C.; for IC50: Mycolicibacterium smegmatis, read-out: M. smegmatis (pIC50) (converted). Here is the method: D.2. In-vitro Method for Testing Compounds for Anti-bacterial Activity Against Strain M. Smegmatis ATCC607. Flat-bottom, sterile 96well plastic microtiter plates were filled with 180 μl of sterile deionized water, supplemented with 0.25% BSA. Subsequently, stock solutions (7.8× final test concentration) of compounds were added in 45 μl volumes to a series of duplicate wells in column 2 so as to allow evaluation of their effects on bacterial growth. Serial five-fold dilutions (45 μl in 180 μl) were made directly in the microtiter plates from column 2 to 11 using a customised robot system (Zymark Corp., Hopkinton, Mass.). Pipette tips were changed after every 3 dilutions to minimize pipetting errors with high hydrophobic compounds. Untreated control samples with (column 1) and without (column 12) inoculum were included in each microtiter plate. Approximately 250 CFU per well of bacteria inoculum, in a volume of 100 μl in 2.8× Mueller-Hinton broth medium, was added to the rows […]. The same volume of broth medium without inoculum was added to column 12 in row A to H. The cultures were incubated at 37° C. for 48 hours in a humidified 5% CO2 atmosphere (incubator with open air valve and continuous ventilation). At the end of incubation, two days after inoculation, the bacterial growth was quantitated fluorometrically. Therefore Alamar Blue (10×) was added to all wells in a volume of 20 μl and plates were incubated for another 2 hours at […] The fluorescence was read in a computer-controlled fluorometer (Cytofluor, Biosearch) at an excitation wavelength of 530 nm and an emission wavelength of 590 nm (gain 30). The % growth inhibition achieved by the compounds was calculated according to standard methods. The pIC50 was defined as the 50% inhibitory concentration for bacterial growth.
Background: The colour change of resazurin is a common sign of viable cells or microbes.

The test system of data set [2] is Mycobacterium tuberculosis (strain H37RV). Put plainly: In-vitro testing of compounds against M. tuberculosis (growth inhibition, Resazurin fluorescence). It is filed as cell-based. The settings on record: bacterial growth inhibition, 7 days at 37° C.; for IC50: Mycobacterium tuberculosis, 168 h, read-out: M. tuberculosis (pIC50) (converted).

Consider `CN(C)CCC(O)(c1cccc2ccccc12)c1cc(Br)cc2cc(-c3ccccc3)c(=O)[nH]c12` (centres unmarked), for which the melting point is 190 °C. As for `CN(C)CCC(O)(c1cc(F)cc(F)c1)c1ccc2nc(-c3cccnc3)cc(-c3ccccc3)c2c1` (centres unmarked) (as salt: salt) [Compound 8], the melting point is 151 °C. On the same count and under the same terms, the same measure for `CN(C)CCC(O)(c1cc(F)cc(F)c1)c1cccc2nc(N(C)C)c(-c3ccccc3)cc12` (centres unmarked) (as salt: salt) [Compound 10]: 136 °C; for `COc1nc2c(C(O)(CCN(C)C)c3cc(F)cc(F)c3)cc(-c3cccnc3)cc2cc1-c1ccccc1` (centres unmarked) (as salt: salt) [Compound 13]: 156 °C.

Compound `COc1nc2c(C(O)(CCN(C)C)c3ccccc3)cc(Br)cc2cc1Cc1ccccc1` (centres unmarked) [Compound 3] had a melting point of 66 °C. Besides, the IC50 in data set [1] was 1260 nM. For the compound `CN(C)CCC(O)(Cc1c(Cc2ccccc2)c(-c2ccco2)nc2ccccc12)c1cc(F)cc(F)c1` (centres unmarked) [Compound 5], the melting point amounted to 130 °C. The IC50 in data set [1] is 398 nM. Compound `CN(C)CCC(O)(c1ccccc1)c1cc(Br)cc2cc(Cc3ccccc3)c(N3CCOCC3)nc12` (centres unmarked) [Compound 7] had a melting point of 70 °C. Further, the IC50 in data set [1] was 1580 nM. The corresponding values for `CN(C)CCC(O)(Cc1c(Cc2ccccc2)c(-c2cccnc2)nc2ccccc12)c1cc(F)cc(F)c1` (centres unmarked) [Compound 9] are 164 °C and 6310 nM. With `CN(C)CCC(O)(c1ccccc1)c1cc(Br)cc2cc(Cc3ccccc3)c(OCCN3CCCCC3)nc12` (centres unmarked) [Compound 11], the IC50 in data set [2] and in data set [1] was 3160 nM each time. Compound `COc1nc2c(C(O)(CCN(C)C)c3ccccc3)cc(-c3cccnc3)cc2cc1Cc1ccccc1` (centres unmarked) [Compound 14] displayed a melting point of 180 °C. Also, the IC50 in data set [1] is 7940 nM. Take `CN(C)CCOc1nc2c(C(O)(CCN(C)C)c3ccccc3)cc(Br)cc2cc1Cc1ccccc1` (centres unmarked) [Compound 75]: the IC50 in data set [2] is 5010 nM; in data set [1], 6310 nM. In the case of `COc1nc2c(C(O)(CCN(C)C)c3cccs3)cc(-c3cccnc3)cc2cc1Cc1ccccc1` (centres unmarked) [Compound 77], the IC50 in data set [1] is 12600 nM. Regarding `CN(C)CCC(O)(c1ccccc1)c1cc(Br)cc2cc(Cc3ccccc3)c(N(C)C)nc12` (centres unmarked) [Compound 78], in data set [1], the IC50 was 1580 nM.

For `CN(C)CCC(O)(c1ccccc1)c1cc(Br)cc2cc(Cc3ccccc3)c(N3CCN(Cc4ccccc4)CC3)nc12` (centres unmarked) [Compound 79], the “M. tuberculosis (pIC50)” value in data set [2] is reported as 4.6. In addition, the “M. smegmatis (pIC50)” value in data set [1] is recorded as 6.2. The corresponding values for `CN(C)CCC(O)(c1ccccc1)c1cc(Br)cc2cc(Cc3ccccc3)c(N3CCCC3)nc12` (centres unmarked) [Compound 80] are 5.05 and 6.1. For `CN(C)CCC(O)(c1ccccc1)c1cc(Br)cc2cc(Cc3ccccc3)c(N3CC=CCC3)nc12` (centres unmarked) [Compound 81], the IC50 in data set [1] was 1260 nM. With `CC(=O)c1ccc(N2CCN(c3nc4c(C(O)(CCN(C)C)c5ccccc5)cc(Br)cc4cc3Cc3ccccc3)CC2)cc1` (centres unmarked) [Compound 82], the IC50 in data set [1] is 1580 nM. For the compound `CN(C)CCC(O)(c1ccccc1)c1cc(Br)cc2cc(Cc3ccccc3)c(N(C)CCc3ccccc3)nc12` (centres unmarked) [Compound 83], the IC50 in data set [1] was 1580 nM. Take `CN(C)CCC(O)(c1ccccc1)c1cc(Br)cc2cc(Cc3ccccc3)c(N3CCC(Cc4ccccc4)CC3)nc12` (centres unmarked) [Compound 84]: the IC50 in data set [1] is 2000 nM. For the compound `CN(C)CCC(O)(c1ccccc1)c1cc(Br)cc2cc(Cc3ccccc3)c(N3CCN(c4ccccn4)CC3)nc12` (centres unmarked) [Compound 85], in data set [1], the “M. smegmatis (pIC50)” value was 5.7. For the compound `CN(C)CCC(O)(c1ccccc1)c1cc(Br)cc2cc(Cc3ccccc3)c(N3CCN(C(=O)c4ccco4)CC3)nc12` (centres unmarked) [Compound 86], in data set [1], the “M. smegmatis (pIC50)” value came to 5.7. In the case of `CN(C)CCC(O)(c1ccccc1)c1cc(Br)cc2cc(Cc3ccccc3)c(NCCCN3CCOCC3)nc12` (centres unmarked) [Compound 87], the IC50 in data set [1] is 2510 nM. Consider `CN(C)CCC(O)(c1ccccc1)c1cc(Br)cc2cc(Cc3ccccc3)c(NCCC(c3ccccc3)c3ccccc3)nc12` (centres unmarked) [Compound 88], for which the IC50 in data set [1] was 2510 nM. As for `CN(C)CCC(O)(c1ccccc1)c1cc(Br)cc2cc(Cc3ccccc3)c(N3CCN(c4ncccn4)CC3)nc12` (centres unmarked) [Compound 89], the IC50 in data set [1] is 2510 nM. For the compound `COCCCNc1nc2c(C(O)(CCN(C)C)c3ccccc3)cc(Br)cc2cc1Cc1ccccc1` (centres unmarked) [Compound 90], the “M. smegmatis (pIC50)” value in data set [1] came to 5.5. In the case of `CC1CCN(c2nc3c(C(O)(CCN(C)C)c4ccccc4)cc(Br)cc3cc2Cc2ccccc2)CC1` (centres unmarked) [Compound 91], in data set [1], the “M. smegmatis (pIC50)” value is given as 5.3. As for `CN(C)CCC(O)(c1ccccc1)c1cc(Br)cc2cc(Cc3ccccc3)c(NCCCN3CCCC3=O)nc12` (centres unmarked) [Compound 92], in data set [1], the “M. smegmatis (pIC50)” value turned out to be 5.2. As to `CCCCNc1nc2c(C(O)(CCN(C)C)c3ccccc3)cc(Br)cc2cc1Cc1ccccc1` (centres unmarked) [Compound 93], in data set [1], the “M. smegmatis (pIC50)” value is given as 5.1. In the case of `CN(C)CCC(O)(c1ccccc1)c1cc(Br)cc2cc(Cc3ccccc3)c(N3CCC(C(N)=O)CC3)nc12` (centres unmarked) [Compound 94], the IC50 in data set [1] was 7940 nM.

As usually defined, the melting point is the temperature of the solid-liquid transition.
